Source: patent US11358952B2, “Substituted 4-aminoisoindoline-1,3-dione compounds, compositions thereof, and methods of treatment therewith” (Celgene Corporation, priority 2018, dated 2022)
pIC50: −log10 of the molar value.

System: SU-DHL-4 cell line
Assay: SU-DHL-4 cell proliferation assay (Cell Titer-Glo viability)
Type: cell-based
Conditions: Homo sapiens; cell viability IC50 activity level, DLBCL cell line SU-DHL-4, 120 hours post-treatment; read-out: SU-DHL-4 Act
Procedure, shortened: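 SU-DHL-4 cells (500/well, RPMI-1640 + 10% FBS) exposed to 20-point compound dilutions (0.5 nM–10 μM, 0.1% DMSO) for 120 h at 37°C, 5% CO2. Viability measured by Cell Titer-Glo luminescence at t0 and at 120 h. IC50 is the concentration giving 50% of DMSO control, from a four-parameter logistic fit.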

SMILES | pIC50
O=C1CCC(N2C(=O)c3cccc(NCc4ccc(CN5CCN(c6ccccc6Cl)CC5)cc4)c3C2=O)C(=O)N1 (stereo not shown) [Cpd 12, 4-(4-((4-(2-chlorophenyl)piperazin-1-yl)methyl)benzylamino)-2-(2,6-dioxopiperidin-3-yl)isoindoline-1,3-dione] | 6.30 to 6.70
CC1(C)CCC2(CCN(Cc3ccc(CNc4cccc5c4C(=O)N(C4CCC(=O)NC4=O)C5=O)cc3F)CC2)O1 (stereo not shown) [Cpd 148, 4-(4-((2,2-dimethyl-1-oxa-8-azaspiro[4.5]decan-8-yl)methyl)-3-fluorobenzylamino)-2-(2,6-dioxopiperidin-3-yl)isoindoline-1,3-dione] | > 6.70
CN(C)C(=O)c1ccc(N2CCN(Cc3ccc(CNc4cccc5c4C(=O)N(C4CCC(=O)NC4=O)C5=O)cc3F)CC2)cn1 (stereo not shown) [Cpd 142, 5-(4-(4-((2-(2,6-dioxopiperidin-3-yl)-1,3-dioxoisoindolin-4-ylamino)methyl)-2-fluorobenzyl)piperazin-1-yl)-N,N-dimethylpicolinamide] | 6.12 to 6.30
CCC1(OC)CCN(Cc2ccc(CNc3cccc4c3C(=O)N(C3CCC(=O)NC3=O)C4=O)cc2F)CC1 (stereo not shown) [Cpd 157, 2-(2,6-dioxopiperidin-3-yl)-4-(4-((4-ethyl-4-methoxypiperidin-1-yl)methyl)-3-fluorobenzylamino)isoindoline-1,3-dione] | > 6.70
O=C1CCC(N2C(=O)c3cccc(NCc4ccc(CN5CCC(C6CCOCC6)CC5)cc4)c3C2=O)C(=O)N1 (stereo not shown) [Cpd 213, 2-(2,6-dioxopiperidin-3-yl)-4-(4-((4-(tetrahydro-2H-pyran-4-yl)piperridin-1-yl)methyl)benzylamino)isoindoline-1,3-dione] | > 6.70
Cc1cc(CNc2cccc3c2C(=O)N(C2CCC(=O)NC2=O)C3=O)ccc1CN1CCC(C(C)(C)C)CC1 (stereo not shown) [Cpd 43, 4-(4-((4-tert-butylpiperidin-1-yl)methyl)-3-methylbenzylamino)-2-(2,6-dioxopiperidin-3-yl)isoindoline-1,3-dione] | > 6.70
Cc1cc(CNc2cccc3c2C(=O)N(C2CCC(=O)NC2=O)C3=O)ccc1CN1CC(N2CCCC2)C1 (stereo not shown) [Cpd 217, 2-(2,6-dioxopiperidin-3-yl)-4-(3-methyl-4-((3-(pyrrolidin-1-yl)azetidin-1-yl)methyl)benzylamino)isoindoline-1,3-dione] | > 6.70
Cc1cc(CNc2cccc3c2C(=O)N(C2CCC(=O)NC2=O)C3=O)ccc1CN1CC(N2CCOCC2(C)C)C1 (stereo not shown) [Cpd 238, 4-(4-((3-(3,3-dimethylmorpholino)azetidin-1-yl)methyl)-3-methylbenzylamino)-2-(2,6-dioxopiperidin-3-yl)isoindoline-1,3-dione] | > 6.70
Cc1cc(CNc2cccc3c2C(=O)N(C2CCC(=O)NC2=O)C3=O)ccc1CN1CCCOCC1 (stereo not shown) [Cpd 244, 4-(4-((1,4-oxazepan-4-yl)methyl)-3-methylbenzylamino)-2-(2,6-dioxopiperidin-3-yl)isoindoline-1,3-dione] | 6.12 to 6.30
Cc1cc(CNc2cccc3c2C(=O)N(C2CCC(=O)NC2=O)C3=O)ccc1CN1CC(N2CCOCC2)C1 (stereo not shown) [Cpd 201, 2-(2,6-dioxopiperidin-3-yl)-4-(3-methyl-4-((3-morpholinoazetidin-1-yl)methyl)benzylamino)isoindoline-1,3-dione] | > 6.70
CC(C)S(=O)(=O)C1CCN(Cc2ccc(CNc3cccc4c3C(=O)N(C3CCC(=O)NC3=O)C4=O)c(F)c2)CC1 (stereo not shown) [Cpd 174, 2-(2,6-dioxopiperidin-3-yl)-4-(2-fluoro-4-((4-(isopropylsulfonyl)piperidin-1-yl)methyl)benzylamino)isoindoline-1,3-dione] | > 6.70
O=C1CCC(N2C(=O)c3cccc(NCc4ccc(CN5C[C@@H]6CC(c7ccc(F)cc7)=C[C@@H]6C5)cc4)c3C2=O)C(=O)N1 (stereo in doubt) [Cpd 59, 2-(2,6-dioxopiperidin-3-yl)-4-(4-(((3aS,6aR)-5-(4-fluorophenyl)-3,3a,6,6a-tetrahydrocyclopenta[c]pyrrol-2(1H)-yl)methyl)benzylamino)isoindoline-1,3-dione] | > 6.70
CN1CCC2(CCN(Cc3ccc(CNc4cccc5c4C(=O)N(C4CCC(=O)NC4=O)C5=O)cc3F)CC2)C1=O (stereo not shown) [Cpd 153, 2-(2,6-dioxopiperidin-3-yl)-4-(3-fluoro-4-((2-methyl-1-oxo-2,8-diazaspior[4.5]decan-8-yl)methyl)benzylamino)isoindoline-1,3-dione] | 6.12 to 6.30
Cc1cc(CNc2cccc3c2C(=O)N(C2CCC(=O)NC2=O)C3=O)ccc1CN1CC(c2ccc(C#N)cc2)C1 (stereo not shown) [Cpd 51, 4-(1-(4-((2-(2,6-dioxopiperidin-3-yl)-1,3-dioxoisoindolin-4-ylamino)methyl)-2-methylbenzyl)aetidin-3-yl)benzonitrile] | > 6.70
Cc1cc(CNc2cccc3c2C(=O)N(C2CCC(=O)NC2=O)C3=O)ccc1CN1CC(c2cccnc2)C1 (stereo not shown) [Cpd 80, 2-(2,6-dioxopiperidin-3-yl)-4-(3-methyl-4-((3-(pyridin-3-yl)azetidin-1-yl)methyl)benzylamino)isoindoline-1,3-dione] | > 6.70
O=C1CCC(N2C(=O)c3cccc(NCc4ccc(CN5CCC(n6cccn6)CC5)cc4F)c3C2=O)C(=O)N1 (stereo not shown) [Cpd 107, 4-(4-((4-(1H-pyrazol-1-yl)piperidin-1-yl)methyl)-2-fluorobenzylamino)-2-(2,6-dioxopiperidin-3-yl)isoindoline-1,3-dione] | > 6.70
O=C1CCC(N2C(=O)c3cccc(NCc4ccc(CN5CCC6(CCC6)CC5)cc4)c3C2=O)C(=O)N1 (stereo not shown) [Cpd 23, 4-(4-(7-azaspiro[3.5]nonan-7-ylmethyl)benzylamino)-2-(2,6-dioxopiperidin-3-yl)isoindoline-1,3-dione] | > 6.70
O=C1CCC(N2C(=O)c3cccc(NCc4ccc(CN5CC(N6C7CCC6COC7)C5)cc4)c3C2=O)C(=O)N1 (stereo not shown) [Cpd 248, 4-(4-((3-(3-oxa-8-azabicyclo[3.2.1]octan-8-yl)azetidin-1-yl)methyl)benzylamino)-2-(2,6-dioxopiperidin-3-yl)isoindoline-1,3-dione] | > 6.70
O=C1CCC(N2C(=O)c3cccc(NCc4ccc(CN5CCN(c6nnc(C(F)(F)F)s6)CC5)cc4F)c3C2=O)C(=O)N1 (stereo not shown) [Cpd 177, 2-(2,6-dioxopiperidin-3-yl)-4-(2-fluoro-4-((4-(5-(trifluoromethyl)-1,3,4-thiadiazol-2-yl)piperazin-1-yl)methyl)benzylamino)isoindoline-1,3-dione] | > 6.70
